Data reported in BindingDB's records for doi:10.1016/j.bmcl.2014.06.082 (Friedrich Alexander University, 2014).

Target: T1, G protein-coupled receptor (Human cytomegalovirus, UniProt Q9IP65)
T1 sequence (Q9IP65 whole entry): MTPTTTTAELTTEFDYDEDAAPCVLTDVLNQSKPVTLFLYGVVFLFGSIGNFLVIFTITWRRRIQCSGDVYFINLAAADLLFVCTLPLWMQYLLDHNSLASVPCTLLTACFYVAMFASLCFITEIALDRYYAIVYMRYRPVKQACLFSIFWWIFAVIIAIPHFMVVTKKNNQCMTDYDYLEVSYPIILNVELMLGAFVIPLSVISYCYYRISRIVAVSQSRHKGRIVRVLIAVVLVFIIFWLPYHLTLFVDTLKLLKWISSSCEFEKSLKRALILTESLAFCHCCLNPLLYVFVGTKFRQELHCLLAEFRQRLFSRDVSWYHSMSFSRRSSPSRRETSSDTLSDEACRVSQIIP
Test: Allosteric modulatory activity at FLAG-tagged human cytomegalovirus US28 receptor delta300 mutant expressed in HEK293T cells by PathDetectElk1 assay

Structure (SMILES)	EC50 [µM]
CCCCCCCCCC(=O)N(CCN(C)C)CC1(C)Cc2ccccc2C(=O)N1 (configuration not stated)	< 10
N#CC(CCCN1CCC(O)(c2ccc(Cl)cc2)CC1)(c1ccccc1)c1ccccc1 [5-[4-(4-Chloro-phenyl)-4-hydroxy-piperidin-1-yl]-2,2-diphenyl-pentanenitrile]	< 10
